# In PubChem BioAssay AID184 (DTP/NCI, 2004):
# Where “and” joins values, the source holds several entries; their conditions need not be identical. Equal values may be shown once. Toxic doses and inconclusive results are not listed.
# Test system: BALB/cJ mice, ADJ-PC-6 ip tumor, median survival T/C
# Assay: NCI In Vivo Anticancer Drug Screen. Data for tumor model ADJ-PC-6 (intraperitoneal) in BALB/cJ mice
# Conditions: endpoint: median survival time, higher = longer survival
# Experimental: The antitumor activity of compounds was measured in mice bearing transplantable tumors. Survival or tumor size were measured and the results are expressed as the measurement made in the treated group (T) divided by the measurement made in the vehicle treated control group (C). The tumor model used in this assay is ADJ-PC-6 (intraperitoneal) in BALB/cJ mice
smiles,measurement,setting,value
CC1OC(=O)C(C(C)C)NC(=O)C(C(C)C)OC(=O)C(C(C)C)NC(=O)C(C)OC(=O)C(C(C)C)NC(=O)C(C(C)C)OC(=O)C(C(C)C)NC(=O)C(C)OC(=O)C(C(C)C)NC(=O)C(C(C)C)OC(=O)C(C(C)C)NC1=O (stereo not given),T/C,"dose: 0.75 mg/kg/injection, schedule: Q04DX003 (ip), vehicle: Klucel (hydroxypropylcellulose) (HPC)",87 % of control
same,T/C,"dose: 1.5 mg/kg/injection, schedule: Q04DX003 (ip), vehicle: Klucel (hydroxypropylcellulose) (HPC)",102 % of control
same,T/C,"dose: 2.0 mg/kg/injection, schedule: Q01DX009 (ip), vehicle: Klucel (hydroxypropylcellulose) (HPC)",100 % of control
same,T/C,"dose: 4.0 mg/kg/injection, schedule: Q01DX009 (ip), vehicle: Klucel (hydroxypropylcellulose) (HPC)",104 % of control
same,T/C,"dose: 8.0 mg/kg/injection, schedule: Q01DX009 (ip), vehicle: Klucel (hydroxypropylcellulose) (HPC)",185 % of control
O=C(O)CCCc1ccc(N(CCCl)CCCl)cc1,T/C,"dose: 1.25 mg/kg/injection, schedule: Q04DX003 (ip), vehicle: saline with Tween-80",106 % of control
same,T/C,"dose: 2.0 mg/kg/injection, schedule: Q04DX003 (ip), vehicle: saline with Tween-80",102 % of control
same,T/C,"dose: 2.5 mg/kg/injection, schedule: Q04DX003 (ip), vehicle: saline with Tween-80",105 % of control
same,T/C,"dose: 4.0 mg/kg/injection, schedule: Q04DX003 (ip), vehicle: saline with Tween-80",102 % of control
same,T/C,"dose: 5.0 mg/kg/injection, schedule: Q04DX003 (ip), vehicle: saline with Tween-80",105 % of control
same,T/C,"dose: 8.0 mg/kg/injection, schedule: Q04DX003 (ip), vehicle: saline with Tween-80",122 % of control
same,T/C,"dose: 16.0 mg/kg/injection, schedule: Q04DX003 (ip), vehicle: saline with Tween-80",173 % of control
same,T/C,"dose: 20.0 mg/kg/injection, schedule: Q04DX003 (ip), vehicle: saline with Tween-80",260 % of control
same,T/C,"dose: 32.0 mg/kg/injection, schedule: Q04DX003 (ip), vehicle: saline with Tween-80",189 % of control
COc1cc([C@@H]2c3cc4c(cc3[C@@H](OC3OC5CO[C@@H](c6cccs6)OC5C(O)C3O)[C@H]3COC(=O)[C@H]23)OCO4)cc(OC)c1O (stereo not given in full),T/C,"dose: 5.0 mg/kg/injection, schedule: Q04DX003 (ip), vehicle: saline",185 % of control
same,T/C,"dose: 10.0 mg/kg/injection, schedule: Q04DX003 (ip), vehicle: saline",151 % of control and 207 % of control
same,T/C,"dose: 20.0 mg/kg/injection, schedule: Q04DX003 (ip), vehicle: saline",264 % of control and 301 % of control
same,T/C,"dose: 40.0 mg/kg/injection, schedule: Q04DX003 (ip), vehicle: saline",269 % of control and 355 % of control
same,T/C,"dose: 80.0 mg/kg/injection, schedule: Q04DX003 (ip), vehicle: saline",337 % of control and 355 % of control
same,T/C,"dose: 160.0 mg/kg/injection, schedule: Q04DX003 (ip), vehicle: saline",337 % of control
Cc1c(N)nc([C@H](CC(N)=O)NC[C@H](N)C(N)=O)nc1C(=O)N[C@H](C(=O)N[C@H](C)[C@@H](O)[C@H](C)C(=O)N[C@H](C(=O)NCCc1nc(-c2nc(C(=O)NCCC[S+](C)C)cs2)cs1)[C@@H](C)O)C(OC1OC(CO)C(O)C(O)C1OC1OC(CO)C(O)C(OC(N)=O)C1O)c1cnc[nH]1 (stereo not given in full),T/C,"dose: 3.75 mg/kg/injection, schedule: Q04DX003 (ip), vehicle: saline",101 % of control and 108 % of control
same,T/C,"dose: 7.5 mg/kg/injection, schedule: Q04DX003 (ip), vehicle: saline",89 % of control and 116 % of control
same,T/C,"dose: 15.0 mg/kg/injection, schedule: Q04DX003 (ip), vehicle: saline",102 % of control
same,T/C,"dose: 30.0 mg/kg/injection, schedule: Q04DX003 (ip), vehicle: saline",105 % of control and 112 % of control
same,T/C,"dose: 60.0 mg/kg/injection, schedule: Q04DX003 (ip), vehicle: saline",106 % of control and 116 % of control
CN1N=C(N)c2cn(C3OC(COP(=O)(O)O)C(O)C3O)c3ncnc1c23 (stereo not given),T/C,"dose: 12.5 mg/kg/injection, schedule: Q04DX003 (ip), vehicle: saline",222 % of control
same,T/C,"dose: 12.5 mg/kg/injection, schedule: Q04DX003 (ip), vehicle: water",471 % of control
same,T/C,"dose: 25.0 mg/kg/injection, schedule: Q04DX003 (ip), vehicle: saline",222 % of control
same,T/C,"dose: 25.0 mg/kg/injection, schedule: Q04DX003 (ip), vehicle: water",471 % of control
same,T/C,"dose: 50.0 mg/kg/injection, schedule: Q04DX003 (ip), vehicle: saline",222 % of control and 275 % of control and 369 % of control
same,T/C,"dose: 50.0 mg/kg/injection, schedule: Q04DX003 (ip), vehicle: water",471 % of control
same,T/C,"dose: 100.0 mg/kg/injection, schedule: Q04DX003 (ip), vehicle: saline",222 % of control and 275 % of control and 369 % of control
same,T/C,"dose: 100.0 mg/kg/injection, schedule: Q04DX003 (ip), vehicle: water",471 % of control
same,T/C,"dose: 200.0 mg/kg/injection, schedule: Q04DX003 (ip), vehicle: saline",275 % of control and 369 % of control
NC(=O)c1cn(C2OC(CO)C(O)C2O)c2ncnc(N)c12 (stereo not given),T/C,"dose: 0.4 mg/kg/injection, schedule: Q04DX003 (ip), vehicle: saline with Tween-80",107 % of control
same,T/C,"dose: 0.8 mg/kg/injection, schedule: Q04DX003 (ip), vehicle: saline with Tween-80",173 % of control
same,T/C,"dose: 6.0 mg/kg/injection, schedule: Q04DX003 (ip), vehicle: saline with Tween-80",182 % of control
CO[C@H](C(=O)[C@@H](O)[C@@H](C)O)[C@@H]1Cc2cc3cc(OC4CC(OC5CC(O)C(O)C(C)O5)C(O)C(C)O4)c(C)c(O)c3c(O)c2C(=O)[C@H]1OC1CC(OC2CC(OC3CC(C)(O)C(O)C(C)O3)C(O)C(C)O2)C(O)C(C)O1 (stereo not given in full),T/C,"dose: 0.13 mg/kg/injection, schedule: Q04DX003 (ip), vehicle: clinical formulation",104 % of control
same,T/C,"dose: 0.25 mg/kg/injection, schedule: Q04DX003 (ip), vehicle: clinical formulation",108 % of control
same,T/C,"dose: 125.0 micrograms/kg/injection, schedule: Q04DX003 (ip), vehicle: saline",100 % of control
ClCC[N+]12CC[N+](CCCl)(CC1)C2,T/C,"dose: 10.0 mg/kg/injection, schedule: Q01DX009 (ip), vehicle: saline",88 % of control and 96 % of control and 111 % of control
same,T/C,"dose: 20.0 mg/kg/injection, schedule: Q01DX009 (ip), vehicle: saline",100 % of control and 103 % of control
same,T/C,"dose: 40.0 mg/kg/injection, schedule: Q01DX009 (ip), vehicle: saline",106 % of control
same,T/C,"dose: 80.0 mg/kg/injection, schedule: Q01DX009 (ip), vehicle: saline",107 % of control and 113 % of control (2×)
same,T/C,"dose: 160.0 mg/kg/injection, schedule: Q01DX009 (ip), vehicle: saline",96 % of control and 102 % of control and 103 % of control
CN(C)CNC(=O)c1ccccc1,T/C,"dose: 20.0 mg/kg/injection, schedule: Q01DX009 (ip), vehicle: water",102 % of control
same,T/C,"dose: 40.0 mg/kg/injection, schedule: Q01DX009 (ip), vehicle: water",102 % of control
same,T/C,"dose: 80.0 mg/kg/injection, schedule: Q01DX009 (ip), vehicle: water",115 % of control
same,T/C,"dose: 160.0 mg/kg/injection, schedule: Q01DX009 (ip), vehicle: water",107 % of control
CN(Cc1cnc2nc(N)nc(N)c2n1)c1ccc(C(=O)N[C@@H](CCC(=O)O)C(=O)O)cc1,T/C,"dose: 1.25 mg/kg/injection, schedule: Q04DX003 (ip), vehicle: sodium bicarbonate",97 % of control
same,T/C,"dose: 2.5 mg/kg/injection, schedule: Q04DX003 (ip), vehicle: sodium bicarbonate",110 % of control
same,T/C,"dose: 5.0 mg/kg/injection, schedule: Q04DX003 (ip), vehicle: sodium bicarbonate",104 % of control and 111 % of control
same,T/C,"dose: 10.0 mg/kg/injection, schedule: Q04DX003 (ip), vehicle: sodium bicarbonate",124 % of control
same,T/C,"dose: 20.0 mg/kg/injection, schedule: Q04DX003 (ip), vehicle: sodium bicarbonate",93 % of control and 124 % of control
same,T/C,"dose: 40.0 mg/kg/injection, schedule: Q04DX003 (ip), vehicle: sodium bicarbonate",156 % of control
COc1cccc2c1C(=O)c1c(O)c3c(c(O)c1C2=O)C[C@@](O)(C(=O)CO)C[C@@H]3OC1CC(N)C(O)C(C)O1 (stereo not given in full),T/C,"dose: 0.5 mg/kg/injection, schedule: Q04DX003 (iv), vehicle: saline",103 % of control
same,T/C,"dose: 1.0 mg/kg/injection, schedule: Q04DX003 (iv), vehicle: saline",92 % of control
same,T/C,"dose: 2.0 mg/kg/injection, schedule: Q04DX003 (iv), vehicle: saline",97 % of control
same,T/C,"dose: 4.0 mg/kg/injection, schedule: Q04DX003 (iv), vehicle: saline",95 % of control
same,T/C,"dose: 8.0 mg/kg/injection, schedule: Q04DX003 (iv), vehicle: saline",168 % of control and 225 % of control
NC(C/[N+]([O-])=N/O)C(=O)O (stereo not given),T/C,"dose: 50.0 mg/kg/injection, schedule: Q04DX003 (ip), vehicle: alkali diluted with saline",108 % of control
same,T/C,"dose: 100.0 mg/kg/injection, schedule: Q04DX003 (ip), vehicle: alkali diluted with saline",115 % of control
same,T/C,"dose: 250.0 mg/kg/injection, schedule: Q04DX003 (ip), vehicle: alkali diluted with saline",153 % of control
same,T/C,"dose: 400.0 mg/kg/injection, schedule: Q04DX003 (ip), vehicle: alkali diluted with saline",171 % of control
same,T/C,"dose: 500.0 mg/kg/injection, schedule: Q04DX003 (ip), vehicle: alkali diluted with saline",188 % of control
same,T/C,"dose: 800.0 mg/kg/injection, schedule: Q04DX003 (ip), vehicle: alkali diluted with saline",167 % of control
Nc1nc(=S)c2[nH]cnc2[nH]1,T/C,"dose: 0.5 mg/kg/injection, schedule: Q01DX009 (ip), vehicle: alkali diluted with saline",194 % of control and 239 % of control
same,T/C,"dose: 1.0 mg/kg/injection, schedule: Q01DX009 (ip), vehicle: alkali diluted with saline",194 % of control and 267 % of control
same,T/C,"dose: 2.0 mg/kg/injection, schedule: Q01DX009 (ip), vehicle: alkali diluted with saline",194 % of control and 267 % of control
same,T/C,"dose: 4.0 mg/kg/injection, schedule: Q01DX009 (ip), vehicle: alkali diluted with saline",194 % of control
